Results on one compound are retold here after ChEMBL document CHEMBL4680194, “Synthesis and biological evaluation of 1,2,4-triazole derivatives as potential neuroprotectant against ischemic brain injury” (Eur J Med Chem, 2020).

Broadly, the clearance is the volume of plasma or blood freed of the substance per unit of time. The low end stands for a low capacity for elimination, the high end for a high capacity for elimination. Broadly, the MRT is the average time that molecules of a dose stay in the body. For orientation: LD50 means the dose at which mortality reaches 50%. As usually defined, the AUC(0-inf) is the area under the concentration-time curve extrapolated to infinity.

The structures appear in SMILES notation. Calls of active or inactive are those of the source. No cut-off for these calls is given here.

In series [1] the target is T1, Nuclear factor erythroid 2-related factor 2 (Rattus norvegicus) (UniProt O54968).
T1 sequence (whole entry): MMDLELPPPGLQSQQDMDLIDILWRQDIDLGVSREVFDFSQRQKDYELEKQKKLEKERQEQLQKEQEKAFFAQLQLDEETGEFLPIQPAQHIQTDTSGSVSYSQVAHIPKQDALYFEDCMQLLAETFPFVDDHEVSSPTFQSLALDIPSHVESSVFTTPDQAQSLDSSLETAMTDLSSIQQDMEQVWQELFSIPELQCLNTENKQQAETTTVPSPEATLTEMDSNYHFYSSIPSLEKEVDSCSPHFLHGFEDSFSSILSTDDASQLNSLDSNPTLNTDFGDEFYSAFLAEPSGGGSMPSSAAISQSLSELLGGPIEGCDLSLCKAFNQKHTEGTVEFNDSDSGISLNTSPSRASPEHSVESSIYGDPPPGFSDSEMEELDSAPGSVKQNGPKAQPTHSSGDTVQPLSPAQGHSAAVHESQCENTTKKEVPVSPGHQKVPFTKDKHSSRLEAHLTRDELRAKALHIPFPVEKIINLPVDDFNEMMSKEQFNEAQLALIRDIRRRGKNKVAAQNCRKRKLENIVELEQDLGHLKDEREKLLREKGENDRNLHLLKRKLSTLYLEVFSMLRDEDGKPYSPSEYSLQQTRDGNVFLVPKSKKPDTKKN
In words: Induction of Nrf2 nuclear translocation in rat PC-12 cells assessed as SNP-induced SOD level incubated for 1 hr followed by SNP stimulation and measured after 24 hrs. The class given is cell-based. As to conditions: dose 2.5-10 µM, time 25.0 hrs.

The target in series [2] is T1, Nuclear factor erythroid 2-related factor 2 (Rattus norvegicus). In words: Induction of Nrf2 nuclear translocation in rat PC-12 cells assessed as H2O2-induced SOD level at 10 uM incubated for 1 hr followed by H2O2 stimulation and measured after 5 hrs (reference value: 29.69 +/- 1.65 U/mg). As to conditions: time 6.0 hrs. The class given is cell-based.
For series [3] the target is unchanged. In words: Induction of Nrf2 nuclear translocation in rat PC-12 cells assessed as H2O2-induced GSH level at 5 uM incubated for 1 hr followed by H2O2 stimulation and measured after 5 hrs (reference value: 65.52 +/- 1.44 nM/mg). It is filed as cell-based. Particulars: time 6.0 hrs.
Series [4] relates to Rattus norvegicus. In words: Neuroprotective activity in Sprague-Dawley rat model of middle cerebral artery occlusion-induced ischemic injury assessed as infarction volume at 3 mg/kg, ip administered TID and measured after 6 hrs by TTC staining based assay (reference value: 28.67 +/- 2.90 %). It is filed as functional.
The nature of series [5]: Clearance in Sprague-Dawley rat at 2 mg/kg, iv measured upto 24 hrs by LC-MS/MS analysis. The class given is ADME, organism-based. As to conditions: in vivo.
The target of series [6] is T1, Nuclear factor erythroid 2-related factor 2 (Rattus norvegicus). In words: Induction of Nrf2 nuclear translocation in rat PC-12 cells assessed as SNP-induced GSH level incubated for 1 hr followed by SNP stimulation and measured after 24 hrs. Particulars: dose 2.5-10 µM, time 25.0 hrs. The class given is cell-based.
Series [7] concerns PC-12. The experiment in a line: Inhibition of SNP-induced mitochondrial membrane potential loss in rat PC-12 cells assessed as increase in red fluoresence at 2.5 to 10 uM incubated for 1 hr followed by SNP stimulation and measured after 24 hrs by JC-1 staining based fluorescence microscopy. Particulars: dose 2.5-10 µM, time 25.0 hrs. It is filed as functional, cell-based.
Series [8] concerns the target T1, Nuclear factor erythroid 2-related factor 2 (Rattus norvegicus). In words: Induction of Nrf2 nuclear translocation in rat PC-12 cells assessed as H2O2-induced SOD level incubated for 1 hr followed by H2O2 stimulation and measured after 5 hrs. Particulars: dose 2.5-10 µM, time 6.0 hrs. The class given is cell-based.
Series [9] shares this target. In words: Induction of Nrf2 nuclear translocation in rat PC-12 cells assessed as SNP-induced GSH level at 5 uM incubated for 1 hr followed by SNP stimulation and measured after 24 hrs (reference value: 75.78 +/- 1.74 nM/mg). It is filed as cell-based. Particulars: time 25.0 hrs.
The target is the same in series [10]. The experiment in a line: Induction of Nrf2 nuclear translocation in rat PC-12 cells assessed as H2O2-induced GSH level at 10 uM incubated for 1 hr followed by H2O2 stimulation and measured after 5 hrs (reference value: 65.52 +/- 1.44 nM/mg). The class given is cell-based. Particulars: time 6.0 hrs.
Series [11] concerns PC-12. The experiment in a line: Antioxidant activity in rat PC-12 cells assessed as reduction in SNP-induced ROS level incubated for 1 hr followed by SNP stimulation and measured after 24 hrs by DCFH-DA staining based fluorescence microscopy. The class given is functional, cell-based. As to conditions: dose 2.5-10 µM, time 25.0 hrs.
Series [12] deals with T1, Nuclear factor erythroid 2-related factor 2 (Rattus norvegicus). In words: Induction of Nrf2 nuclear translocation in rat PC-12 cells assessed as decrease in cytoplasmic Nrf2 level at 1.25 to 5 uM incubated for 24 hrs by Western blot analysis. The class given is cell-based. Particulars: dose 1.25-5 µM. (In western blotting, separated proteins are transferred to a membrane and probed.)

Series [13] can be described thus: MRT in Sprague-Dawley rat at 20 mg/kg, po measured upto 24 hrs by LC-MS/MS analysis. It is filed as ADME, organism-based. Particulars: in vivo.
In series [14] the target is T1, Nuclear factor erythroid 2-related factor 2 (Rattus norvegicus). The experiment in a line: Induction of Nrf2 nuclear translocation in rat PC-12 cells assessed as SNP-induced GSH level at 2.5 uM incubated for 1 hr followed by SNP stimulation and measured after 24 hrs (reference value: 75.78 +/- 1.74 nM/mg). It is filed as cell-based. As to conditions: time 25.0 hrs.

For series [15] the target is unchanged. The experiment in a line: Induction of Nrf2 nuclear translocation in rat PC-12 cells assessed as H2O2-induced GSH-px level at 2.5 uM incubated for 1 hr followed by H2O2 stimulation and measured after 5 hrs (reference value: 45.92 +/- 3.64 mU/mg). It is filed as cell-based. Particulars: time 6.0 hrs.
The subject of series [16] is PC-12. The experiment in a line: Effect on Nrf2 in rat PC-12 cells at 1.25 to 5 uM incubated for 24 hrs by Western blot analysis. The class given is functional, cell-based. Particulars: dose 1.25-5 µM.
Series [17] concerns the target T1, Nuclear factor erythroid 2-related factor 2 (Rattus norvegicus). In words: Induction of Nrf2 nuclear translocation in rat PC-12 cells assessed as SNP-induced SOD level at 2.5 uM incubated for 1 hr followed by SNP stimulation and measured after 24 hrs (reference value: 23.74 +/- 2.02 U/mg). The class given is cell-based. As to conditions: time 25.0 hrs.
A short description of series [18]: Toxicity in […] assessed as organism death at 400 mg/kg, ip observed for 7 day. It is filed as organism-based. As to conditions: in vivo.
Series [19] is described as follows: AUC (0 to infinity) in Sprague-Dawley rat at 2 mg/kg, iv measured upto 24 hrs by LC-MS/MS analysis. The class given is ADME, organism-based. The arrangement: route intravenous, dose 2 mg/kg, time <=24. Particulars: in vivo.
The subject of series [20] is PC-12. In words: Inhibition of H2O2-induced mitochondrial membrane potential loss in rat PC-12 cells assessed as increase in red fluoresence at 2.5 to 10 uM incubated for 1 hr followed by H2O2 stimulation and measured after 5 hrs by JC-1 staining based fluorescence microscopy. As to conditions: dose 2.5-10 µM, time 6.0 hrs. The class given is functional, cell-based.

A short description of series [21]: Toxicity in […] assessed as body weight at 400 mg/kg, ip measured on day 1 (reference value: 24.4 to 28.4 g). The class given is organism-based. Particulars: in vivo, 24 h, time 1 day.
Series [22] deals with Rattus norvegicus. In words: Neuroprotective activity in Sprague-Dawley rat model of middle cerebral artery occlusion-induced ischemic injury assessed as increase in MDA level at 3 to 30 mg/kg, ip administered TID and measured after 24 hrs by ELISA. The class given is functional, organism-based. Particulars: dose 3-30 mg/kg. Background: In an ELISA, binding on a coated surface is turned into a signal by an enzyme label.

Series [23] deals with Rattus norvegicus. In words: Neuroprotective activity in Sprague-Dawley rat model of middle cerebral artery occlusion-induced ischemic injury assessed as infarction volume at 10 mg/kg, ip administered TID and measured after 6 hrs by TTC staining based assay (reference value: 28.67 +/- 2.90 %). The class given is functional.
The target of series [24] is T1, Nuclear factor erythroid 2-related factor 2 (Rattus norvegicus). In words: Induction of Nrf2 nuclear translocation in rat PC-12 cells assessed as H2O2-induced GSH-px level incubated for 1 hr followed by H2O2 stimulation and measured after 5 hrs. It is filed as cell-based. As to conditions: dose 2.5-10 µM, time 6.0 hrs.

In the case of `COc1ccc(-c2nc(-c3ccccc3O)n(-c3ccc(S(N)(=O)=O)cc3)n2)c(O)c1`, the Activity entry in series [1] was “Dose-dependent effect”; in series [2], 41.2 U/mg; in series [3], 72.5 nM/mg; in the series with Rattus norvegicus [4], 20.52%; in [6], “Dose-dependent effect”; in series [8], “Dose-dependent effect”. Besides, the Activity in [9] was determined as 86.7 nM/mg; in series [10], 80.6 nM/mg; in series [14] it was 79.1 nM/mg; in series [15], 51 mU/mg; in series [17], 34.6 U/mg; in series [21] it was 24.3 g. The Activity in the series with Rattus norvegicus [23] is 12.59%; in series [24] it was “Dose-dependent effect”. Also, the clearance in series [5] worked out at 15 mL/min/kg. Besides, the inhibition result with PC-12 [7] and with PC-12 [20] was “Active” throughout. The inhibition result with PC-12 [11] was “Dose-dependent effect”. For the same compound, the result (in series [12]; in the series with Rattus norvegicus [22]) was Active. Also, in [13], the MRT came to 6.32 h. Moreover, the result in the series with PC-12 [16] was inactive. For the same compound, the LD50 at 168 h in [18] worked out at 400 mg/kg. In [19], this compound showed an AUC(0-inf) of 2330 ng·h/mL.
